Values quoted from earlier work in US20240339215A1, “SYSTEM AND METHOD FOR DRUG SELECTION” (Board of Regents, The University of Texas System, priority 2023, published 2024).
Read-outs that look alike come from different tables or passages of the source.

Tested on: breast cancer cell lines

Measured: synergistic effect of combination

Cc1cc([C@@H](C)Nc2ccccc2C(=O)O)c2nc(N3CCOCC3)cc(=O)n2c1 [AZD6482]
synergistic effects: combined with Linsitinib | combined with MK-1775 (Adavosertib) | combined with Sapitinib | combined with Vorinostat
